Source: patent EP1377579B1 (Aventis Pharmaceuticals Inc., priority 2000, dated 2002)
Where a name gives a salt, the structure may show the parent alone.

Experiments:
cdk4/cyclin D1 = cdk4/cyclin D1 (Homo sapiens, UniProt P11802); assay: Cyclin-dependent kinase assay, cdk4/cyclin D1; type: biochemical; conditions: cyclin D1/cdk4; GST-pRb substrate, 10 µM ATP
MDA-MB-435 = assay: In vitro proliferation assay (MTT), MDA-MB-435; type: cell-based, human; conditions: Homo sapiens, MDA-MB-435, MTT assay; value (SD, n) where given; read-out: MB-435 Breast (IC50 µM)
Procedure, shortened: (§1)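 A570 readout of DMSO-solubilized MTT formazan after 3-day compound exposure; IC50 from raw data. Cells plated 1000–2500/well and recovered overnight before dosing.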

NCI-H460 = assay: In vitro proliferation assay (MTT), NCI-H460; type: cell-based; conditions: Homo sapiens, NCI-H460; MTT assay; value (SD, n) where given; read-out: H-460 Lung (IC50 µM)
Procedure, shortened: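 A570 of DMSO-solubilized formazan was the read-out. Seeding: 1000–2500 cells/well, overnight recovery. Compound exposure: 3 days. MTT incubation: 2–4 hr, 37 C. IC50 calculated from raw absorbance.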

HL-60 = assay: In vitro proliferation assay (MTT), HL-60; type: cell-based; conditions: Homo sapiens, HL-60; MTT assay; value (SD, n) where given; read-out: HL-60 Leuk. (IC50 µM)
Method: (§2) The proliferation of tumor cells can be measured using a tetrazolium salt-based assay known as the MTT (3-[4,5-Dimethylthiazol-2-yl]-2,5-diphenyltetrazolium bromide) assay. The proliferation test is performed essentially as described by Carmichael et al., Cancer Res. 47: 936-942, 1987. For the assay, the cell lines are plated onto 96 well plates at 1000 to 2500 cells/well (depending on the properties of the individual cell lines), left to attach and recover overnight. […] After 3 days, the cells are incubated with MTT dye (3-[4,5-Dimethylthiazol-2-yl]-2,5-diphenyltetrazolium bromide, Sigma # M5655, 10 mg/ml in Hank's Buffered Saline) to estimate the amount of live cells remaining vs. concentration for the test compounds. Specifically, MTT solution is added to a final concentration of […] and the plates incubated at 37 C for 2 to 4 hr. The MTT and culture medium is then removed from the cultures and 200 µl of DMSO is added to solubilize the dye from the cell layer. The absorbance at 570 nm is determined for each culture using a Spectramax plate reader (Molecular Devices).
(§3) IC50s were determined from the raw data from either the MTT or SRB assays.
(§4) All of the cell lines were obtained from American Type Tissue Collection, with the ATCC accession number in parentheticals. MCF-7 and MDA-MB-231 cells were grown in improved minimum essential medium (Biofluids) without phenol red, supplemented with 5 % fetal bovine serum, 0.01 mg/ml gentamicin and 3 mM L-glutamine. All of the other cell lines were grown in RPMI 1640 medium (Life Technologies) supplemented with 5 % fetal bovine serum, 0.01 mg/ml gentamicin and 3 mM L-glutamine TABLE 3

Jurkat = assay: In vitro proliferation assay (MTT), Jurkat; type: cell-based; conditions: Homo sapiens, MTT assay, value (SD, n) where given, read-out: Jurkat Leuk. (IC50 µM)
Method: as §2, §3, §4

PC-3 = assay: In vitro proliferation assay (MTT), PC-3; type: cell-based, human; conditions: Homo sapiens, PC-3, MTT assay; value (SD, n) where given; read-out: PC-3 Prostate (IC50 µM)
Procedure, shortened: as §1

Colo-205 = assay: In vitro proliferation assay (MTT), Colo-205; type: cell-based; conditions: Homo sapiens, COLO 205; MTT assay; value (SD, n) where given; read-out: Colo-205 Colon (IC50 µM)
Procedure, shortened: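 After 3 days of compound exposure, MTT was added to Colo-205 cultures for 2–4 h at 37 °C. Formazan was dissolved in DMSO and absorbance read at 570 nm. Cells had been plated at 1000–2500/well and left to recover overnight; IC50 values came from the raw readings.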

cdk1/cyclin B = cdk1/cyclin B (Homo sapiens, UniProt P06493); assay: Cyclin-dependent kinase assay, cdk1/cyclin B; conditions: CDK1 IC50, nM, Histone H1, 10 µM ATP
cdk1/cyclin B, sequence (P06493 whole entry): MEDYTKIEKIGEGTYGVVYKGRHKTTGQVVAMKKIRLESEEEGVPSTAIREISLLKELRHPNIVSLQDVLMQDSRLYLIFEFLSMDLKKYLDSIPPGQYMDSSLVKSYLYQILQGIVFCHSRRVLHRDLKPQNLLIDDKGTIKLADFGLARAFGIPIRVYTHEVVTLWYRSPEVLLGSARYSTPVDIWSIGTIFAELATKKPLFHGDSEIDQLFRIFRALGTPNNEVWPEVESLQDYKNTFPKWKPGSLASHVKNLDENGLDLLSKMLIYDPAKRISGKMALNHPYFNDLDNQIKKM
cdk1/cyclin B, sequence (P14635 whole entry partner): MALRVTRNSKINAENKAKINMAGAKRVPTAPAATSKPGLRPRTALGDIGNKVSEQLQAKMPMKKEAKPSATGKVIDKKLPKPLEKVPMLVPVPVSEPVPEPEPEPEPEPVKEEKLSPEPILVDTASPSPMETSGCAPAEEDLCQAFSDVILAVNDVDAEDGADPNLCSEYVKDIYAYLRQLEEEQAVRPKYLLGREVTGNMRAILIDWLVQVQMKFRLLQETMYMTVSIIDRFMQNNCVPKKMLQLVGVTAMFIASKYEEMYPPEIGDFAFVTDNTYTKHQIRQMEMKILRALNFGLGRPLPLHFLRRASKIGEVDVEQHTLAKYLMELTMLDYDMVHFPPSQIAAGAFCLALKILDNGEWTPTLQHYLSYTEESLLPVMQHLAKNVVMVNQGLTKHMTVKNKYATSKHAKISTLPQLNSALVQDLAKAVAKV

cdk2/cyclin E = cdk2/cyclin E (Homo sapiens, UniProt P24941); assay: Cyclin-dependent kinase assay, cdk2/cyclin E; conditions: CDK2 IC50, nM, GST-pRb substrate, 10 µM ATP

cdk4/cyclin D1, sequence (P11802 whole entry): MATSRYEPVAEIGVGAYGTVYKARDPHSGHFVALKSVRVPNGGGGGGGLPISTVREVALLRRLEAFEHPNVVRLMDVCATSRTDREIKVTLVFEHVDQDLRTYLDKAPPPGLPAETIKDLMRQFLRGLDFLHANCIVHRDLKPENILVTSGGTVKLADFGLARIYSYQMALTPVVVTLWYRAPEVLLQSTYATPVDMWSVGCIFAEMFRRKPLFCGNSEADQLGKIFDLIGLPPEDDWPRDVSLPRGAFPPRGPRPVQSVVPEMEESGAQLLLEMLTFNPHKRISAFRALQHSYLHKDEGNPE
cdk4/cyclin D1, sequence (P24385 whole entry partner): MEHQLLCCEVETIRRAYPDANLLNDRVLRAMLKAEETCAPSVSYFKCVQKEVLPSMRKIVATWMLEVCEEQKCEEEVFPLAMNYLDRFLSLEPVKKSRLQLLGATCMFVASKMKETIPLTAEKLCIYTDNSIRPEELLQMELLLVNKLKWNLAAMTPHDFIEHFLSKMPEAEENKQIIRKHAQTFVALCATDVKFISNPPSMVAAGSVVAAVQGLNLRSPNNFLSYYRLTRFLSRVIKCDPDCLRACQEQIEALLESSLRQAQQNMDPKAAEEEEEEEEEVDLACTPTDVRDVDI

Structure (SMILES): N[C@H]1CC[C@H](Nc2nc(NC3CCN(C(=O)Nc4cc(C(F)(F)F)ccc4Cl)CC3)c3ncn(C4CCCC4)c3n2)CC1 [compound 177, trans-4-[2-(4-Amino-cyclohexylamino)-9-cyclopentyl-9H-purin-6-ylamino]-piperidine-1-carboxylic acid (2-chloro-5-trifluoromethyl-phenyl)-amide dihydrochloride]
- IC50 (cdk4/cyclin D1): 0.432 µM
- IC50 (MDA-MB-435): 0.17 µM
- IC50 (NCI-H460): 0.14 µM
- IC50 (HL-60): 0.03 µM
- IC50 (Jurkat): 0.21 µM
- IC50 (PC-3): 0.15 µM
- IC50 (Colo-205): 0.12 µM
- IC50 (cdk1/cyclin B): 7 nM
- IC50 (cdk2/cyclin E): 60 nM

Structure (SMILES): N[C@H]1CC[C@H](Nc2nc(NC3CCN(C(=O)Nc4ccc(Cl)cc4C(F)(F)F)CC3)c3ncn(C4CCCC4)c3n2)CC1 [compound 178, trans-4-[2-(4-Amino-cyclohexylamino)-9-cyclopentyl-9H-purin-6-ylamino]-piperidine-1-carboxylic acid (4-chloro-2-trifluoromethyl-phenyl)-amide dihydrochloride]
- IC50 (cdk4/cyclin D1): 0.879 µM
- IC50 (MDA-MB-435): 0.14 µM
- IC50 (NCI-H460): 0.23 µM
- IC50 (HL-60): < 0.02 µM
- IC50 (Jurkat): 0.28 µM
- IC50 (PC-3): 0.16 µM
- IC50 (Colo-205): 0.09 µM
- IC50 (cdk1/cyclin B): 49 nM
- IC50 (cdk2/cyclin E): 100 nM

Structure (SMILES): N[C@H]1CC[C@H](Nc2nc(NC3CCN(C(=O)Nc4ccc(Cl)c(C(F)(F)F)c4)CC3)c3ncn(C4CCCC4)c3n2)CC1 [compound 179, trans-4-[2-(4-Amino-cyclohexylamino)-9-cyclopentyl-9H-purin-6-ylamino]-piperidine-1-carboxylic acid (4-chloro-3-trifluoromethyl-phenyl)-amide dihydrochloride]
- IC50 (cdk4/cyclin D1): 0.497 µM
- IC50 (MDA-MB-435): 0.24 µM
- IC50 (NCI-H460): 0.5 µM
- IC50 (HL-60): 0.07 µM
- IC50 (Jurkat): 0.5 µM
- IC50 (PC-3): 0.37 µM
- IC50 (Colo-205): 0.18 µM
- IC50 (cdk1/cyclin B): 8 nM
- IC50 (cdk2/cyclin E): 261 nM

Structure (SMILES): N[C@H]1CC[C@H](Nc2nc(NC3CCN(C(=O)Nc4cc(F)ccc4F)CC3)c3ncn(C4CCCC4)c3n2)CC1 [compound 180, trans-4-[2-(4-Amino-cyclohexylamino)-9-cyclopentyl-9H-purin-6-ylamino]-piperidine-1-carboxylic acid (2,5-difluoro-phenyl)-amide dihydrochloride]
- IC50 (cdk4/cyclin D1): 0.431 µM
- IC50 (MDA-MB-435): 0.1 µM
- IC50 (NCI-H460): 0.12 µM
- IC50 (HL-60): < 0.02 µM
- IC50 (Jurkat): 0.2 µM
- IC50 (PC-3): 0.09 µM
- IC50 (Colo-205): 0.04 µM
- IC50 (cdk1/cyclin B): 12 nM
- IC50 (cdk2/cyclin E): 44 nM

Structure (SMILES): N[C@H]1CC[C@H](Nc2nc(NC3CCN(C(=O)Nc4cc(Cl)cc(Cl)c4)CC3)c3ncn(C4CCCC4)c3n2)CC1 [compound 182, trans-4-[2-(4-Amino-cyclohexylamino)-9-cyclopentyl-9H-purin-6-ylamino]-piperidine-1-carboxylic acid (3,5-dichloro-phenyl)-amide dihydrochloride]
- IC50 (cdk4/cyclin D1): 0.305 µM
- IC50 (MDA-MB-435): 0.15 µM
- IC50 (NCI-H460): 0.12 µM
- IC50 (HL-60): 0.02 µM
- IC50 (Jurkat): 0.17 µM
- IC50 (PC-3): 0.1 µM
- IC50 (Colo-205): < 0.02 µM
- IC50 (cdk1/cyclin B): 32 nM
- IC50 (cdk2/cyclin E): 174 nM

Structure (SMILES): Cc1ccc(NC(=O)N2CCC(Nc3nc(N[C@H]4CC[C@H](N)CC4)nc4c3ncn4C3CCCC3)CC2)cc1 [compound 183, trans-4-[2-(4-Amino-cyclohexylamino)-9-cyclopentyl-9H-purin-6-ylamino]-piperidine-1-carboxylic acid (4-methyl-phenyl)-amide dihydrochloride]
- IC50 (cdk4/cyclin D1): 0.338 µM
- IC50 (MDA-MB-435): 0.11 µM
- IC50 (NCI-H460): 0.2 µM
- IC50 (HL-60): < 0.02 µM
- IC50 (Jurkat): 0.19 µM
- IC50 (PC-3): 0.17 µM
- IC50 (Colo-205): 0.05 µM
- IC50 (cdk1/cyclin B): 17 nM
- IC50 (cdk2/cyclin E): 64 nM

Structure (SMILES): CSc1ccc(NC(=O)N2CCC(Nc3nc(N[C@H]4CC[C@H](N)CC4)nc4c3ncn4C3CCCC3)CC2)cc1 [compound 186, trans-4-[2-(4-Amino-cyclohexylamino)-9-cyclopentyl-9H-purin-6-ylamino]-piperidine-1-carboxylic acid (4-methylsulfanyl-phenyl)-amide dihydrochloride]
- IC50 (cdk4/cyclin D1): 0.465 µM
- IC50 (MDA-MB-435): 0.09 µM
- IC50 (NCI-H460): 0.28 µM
- IC50 (HL-60): < 0.02 µM
- IC50 (Jurkat): 0.21 µM
- IC50 (PC-3): 0.16 µM
- IC50 (Colo-205): 0.03 µM
- IC50 (cdk1/cyclin B): 11 nM
- IC50 (cdk2/cyclin E): 56 nM

Structure (SMILES): N[C@H]1CC[C@H](Nc2nc(NC3CCN(C(=O)Nc4ccccc4-c4ccccc4)CC3)c3ncn(C4CCCC4)c3n2)CC1 [compound 187, trans-4-[2-(4-Amino-cyclohexylamino)-9-cyclopentyl-9H-purin-6-ylamino]-piperidine-1-carboxylic acid biphenyl-2-yl-amide dihydrochloride]
- IC50 (cdk4/cyclin D1): 0.831 µM
- IC50 (MDA-MB-435): 0.21 µM
- IC50 (NCI-H460): 0.25 µM
- IC50 (HL-60): < 0.02 µM
- IC50 (Jurkat): 0.35 µM
- IC50 (PC-3): 0.19 µM
- IC50 (Colo-205): 0.19 µM
- IC50 (cdk1/cyclin B): 280 nM
- IC50 (cdk2/cyclin E): 61 nM

Structure (SMILES): CC(C)c1ccc(NC(=O)N2CCC(Nc3nc(N[C@H]4CC[C@H](N)CC4)nc4c3ncn4C3CCCC3)CC2)cc1 [compound 190, trans-4-[2-(4-Amino-cyclohexylamino)-9-cyclopentyl-9H-purin-6-ylamino]-piperidine-1-carboxylic acid (4-isopropyl-phenyl)-amide dihydrochloride]
- IC50 (cdk4/cyclin D1): 0.357 µM
- IC50 (MDA-MB-435): 0.09 µM
- IC50 (NCI-H460): 0.36 µM
- IC50 (HL-60): < 0.02 µM
- IC50 (Jurkat): 0.2 µM
- IC50 (PC-3): 0.2 µM
- IC50 (Colo-205): 0.02 µM
- IC50 (cdk1/cyclin B): 23 nM
- IC50 (cdk2/cyclin E): 40 nM

Structure (SMILES): CCOc1ccc(NC(=O)N2CCC(Nc3nc(N[C@H]4CC[C@H](N)CC4)nc4c3ncn4C3CCCC3)CC2)cc1 [compound 191, trans-4-[2-(4-Amino-cyclohexylamino)-9-cyclopentyl-9H-purin-6-ylamino]-piperidine-1-carboxylic acid (4-ethoxy-phenyl)-amide dihydrochloride]
- IC50 (cdk4/cyclin D1): 0.297 µM
- IC50 (MDA-MB-435): 0.25 µM
- IC50 (NCI-H460): 0.41 µM
- IC50 (HL-60): < 0.02 µM
- IC50 (Jurkat): 0.36 µM
- IC50 (PC-3): 0.24 µM
- IC50 (Colo-205): 0.07 µM
- IC50 (cdk1/cyclin B): 23 nM
- IC50 (cdk2/cyclin E): 36 nM

Structure (SMILES): COC(=O)c1ccccc1NC(=O)N1CCC(Nc2nc(N[C@H]3CC[C@H](N)CC3)nc3c2ncn3C2CCCC2)CC1 [compound 193, trans-2-[(1-{4-[2-(4-Amino-cyclohexylamino)-9-cyclopentyl-9H-purin-6-ylamino]-piperidin-1-yl}-methanoyl)-amino]-benzoic acid methyl ester dihydrochloride]
- IC50 (cdk4/cyclin D1): 0.507 µM
- IC50 (MDA-MB-435): 0.17 µM
- IC50 (NCI-H460): 0.13 µM
- IC50 (HL-60): 0.03 µM
- IC50 (Jurkat): 0.26 µM
- IC50 (PC-3): 0.18 µM
- IC50 (Colo-205): 0.18 µM
- IC50 (cdk1/cyclin B): 26 nM
- IC50 (cdk2/cyclin E): 8 nM

Structure (SMILES): CCOC(=O)c1ccccc1NC(=O)N1CCC(Nc2nc(N[C@H]3CC[C@H](N)CC3)nc3c2ncn3C2CCCC2)CC1 [compound 199, trans-2-[(1-{4-[2-(4-Amino-cyclohexylamino)-9-cyclopentyl-9H-purin-6-ylamino]-piperidin-1-yl}-methanoyl)-amino]-benzoic acid ethyl ester dihydrochloride]
- IC50 (cdk4/cyclin D1): 0.67 µM
- IC50 (MDA-MB-435): 0.26 µM
- IC50 (NCI-H460): 0.18 µM
- IC50 (HL-60): 0.06 µM
- IC50 (Jurkat): 0.34 µM
- IC50 (PC-3): 0.26 µM
- IC50 (Colo-205): 0.06 µM
- IC50 (cdk1/cyclin B): 70 nM
- IC50 (cdk2/cyclin E): 20 nM
